“Also recorded” adds a separate entry of the source.
System: CLIP^+ B cells and lymphocyte subsets in spleen and lymph nodes
Assay: CpG-ODN (TLR9) induced chronic hyperimmune activation in B6.129 mice with or without peptide
Assay type: in vivo, mouse
Description: FIG. 14 depicts that administration of targeted peptide in combination with CpG-ODN reverses the inflammatory effects of TLR9 activation. FIG. 14a: B6.129 mice were injected with CpG-ODN, a TLR9 agonist without (black squares) or with VGV-hB (black circles). Total spleen cell recoveries (top panel) and lymph node cell recoveries (lower panel) at 24, 72, and 96 hours are reported. FIG. 14b: spleen cells from untreated B6.129 (upper left panel) mice, spleen cells from mice injected intraperitoneally with CpG-ODN for 48 hours (upper right panel), spleen cells from mice injected intraperitoneally with CpG-ODN+targeted peptide (VGV-hB) (lower left panel), or spleen cells from mice injected intraperitoneally with CpG-ODN+scrambled peptide (VGV-sP) (lower right panel), were harvested and stained using anti-mouse B220-PE Cy5 versus 15G4-FITC anti-mouse CLIP/I-Ab Cells were analyzed flow-cytometrically using two-dimensional dot plot analysis. FIGS. 14c & 14d: individual B6.129 animals were injected with CpG-ODN and one of three doses of peptide replacement, with either VGV-hB (FIG. 14c) or VGV-sB (FIG. 14d). As indicated, for each dose, four to six animals were injected with each of three doses, at 0.5, 5, and 50 μg per injection. Splenocytes were removed after 48 hours, stained using anti-mouse B220-PE versus 15G4-FITC anti-mouse CLIP/I-Ab. Cells were acquired and analyzed with flow cytometry, using two-dimensional dot plot analysis. Percentages of CLIP+ B cells were plotted using scatter plot analysis. The formula for the slope of each line is indicated in each of FIGS. 14c & 14d.
FIG. 15 depicts the effects of targeted peptides on the distribution of TLR activated lymphoid subsets of B cells, CD4+ T cells, CD8+ T cells, and on CD4+ T regulatory cells. FIG. 15a: B6.129 mice were injected with CpG-ODN without (squares) or with (circles) VGV-hB. Spleen (solid black symbols) and lymph nodes (open symbols) were harvested at 24, 72, and 96 hours, and stained using anti-mouse B220-PE versus 15G4-FITC anti-mouse CLIP/I-Ab. Data were plotted as percent CLIP+ B cells from either spleen or node. FIG. 15b: B6.129 mice were injected with CpG-ODN without (squares) or with (circles) VGV-hB. Spleen (solid black symbols) and lymph nodes (open symbols) were harvested at 24, 72, and 96 hours, and stained using anti-mouse CD8-PE. Data were plotted as percent CD8+ T cells from either spleen or node as indicated. FIG. 15c: B6.129 mice were injected with CpG-ODN without (squares) or with (circles) VGV-hB. Spleen (solid black symbols) and lymph nodes (open symbols) were harvested at 24, 72, and 96 hours, and stained using anti-mouse CD4 GK1.5-FITC. Data were plotted as percent CD4+ T cells from either spleen or node. FIG. 15d: B6.129 mice were injected with CpG-ODN without (squares) or with (circles) VGV-hB. Spleen (solid black symbols) and lymph nodes (open symbols) were harvested at 24, 72, and 96 hours, and stained using anti-mouse CD4 GK1.5-PE versus anti-mouse FoxP3-FITC. Data were plotted as percent CD4+ FoxP3+ T cells from either spleen or node.
FIG. 16 depicts that TLR activation and peptide reversal differentially affect cell death of lymphocyte subsets. FIG. 16a: B6.129 mice were injected with CpG-ODN without (solid black lines) or with VGV-hB (dashed lines). Cells were counted and viability was determined flow cytometrically. T cell viability 48 hours subsequent to CPG-ODN treatment alone is indicated by solid circles and solid black line; T cell viability, 48 hours after treatment with CpG-ODN and VGV-hB, is indicated by solid squares and dashed line. B cell viability, CpG-ODN treatment alone, is indicated by black x's on a solid black line; B cell viability after CpG-ODN and VGV-hB is indicated by solid black triangles and dashed lines. FIG. 16b: Ag-specific T cell hybridomas induce apoptosis B cells. FIG. 16c: Ag-specific T cell hybridomas induce apoptosis in resting and in CpG-ODN stimulated splenocytes, but not in antigen receptor engaged B cells. […]

[1] = VGV-hB in combination with TLR 9 stimulation, FIG. 16a

## FRIMAVLAS
24, 72, 96 hours, FIG. 15a
  effect of CpG-ODN on total cell numbers, absolute numbers of B cells and CLIP^+ B cell distribution between spleen and lymph node: reduced
CpG-ODN plus peptide intraperitoneally, 48 hours, FIG. 14b
  percent of CpG-induced CLIP^+ B cells in spleen: reversed the effects of CPG alone
CpG-ODN with VGV-hB
  CD8^+ T cells: promotes expansion of CD8^+ T cells
FIG. 15d, 15e, listed as VGV-hB
  CD4^+FoxP3^+ Tregs in the lymph nodes: reversible; also recorded: decreases in Tregs
[1]
  B cell death: increased B cell death
  number of live CD4^+ T cells: moderate increase in the number of live CD4^+ T cells
Dose titration of peptide per mouse, FIGS. 14c and 14d
  reversal of CpG-ODN activation incl. percent of CLIP^+ B cells from total spleen, peptide titration: reversed the effects of CpG-ODN activation
